From PMC8934631, “Transcriptomic and genomic studies classify NKL54 as a histone deacetylase inhibitor with indirect influence on MEF2-dependent transcription” (Nucleic Acids Research, 2022)

Columns and labels:
[1] = molecular target: HDAC4 (Homo sapiens, UniProt P56524); assay: fluorogenic deacetylase assay, trypsin-coupled AMC release; format: biochemical
[2] = molecular target: T1, HDAC1 (Homo sapiens, UniProt Q13547); assay: as above; format: biochemical
T1 construct: purchased from BPS Bioscience
T1 sequence (Q13547 whole entry): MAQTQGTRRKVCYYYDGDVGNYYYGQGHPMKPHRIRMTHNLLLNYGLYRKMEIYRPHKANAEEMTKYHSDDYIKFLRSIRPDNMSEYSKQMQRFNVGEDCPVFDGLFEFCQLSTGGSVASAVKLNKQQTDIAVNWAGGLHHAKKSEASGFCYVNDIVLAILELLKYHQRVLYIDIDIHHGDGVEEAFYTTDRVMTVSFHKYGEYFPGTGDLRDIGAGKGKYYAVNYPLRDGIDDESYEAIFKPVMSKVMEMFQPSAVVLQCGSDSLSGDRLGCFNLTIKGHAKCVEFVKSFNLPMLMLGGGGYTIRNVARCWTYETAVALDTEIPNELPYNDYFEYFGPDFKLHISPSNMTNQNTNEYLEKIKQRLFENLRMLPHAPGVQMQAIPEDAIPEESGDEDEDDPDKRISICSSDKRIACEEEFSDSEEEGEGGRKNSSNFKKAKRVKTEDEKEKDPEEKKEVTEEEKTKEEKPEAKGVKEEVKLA

[3] = molecular target: T2, HDAC2 (Homo sapiens, UniProt Q92769); assay: as above; format: biochemical
T2 construct: purchased from BPS Bioscience
T2 sequence (Q92769 whole entry): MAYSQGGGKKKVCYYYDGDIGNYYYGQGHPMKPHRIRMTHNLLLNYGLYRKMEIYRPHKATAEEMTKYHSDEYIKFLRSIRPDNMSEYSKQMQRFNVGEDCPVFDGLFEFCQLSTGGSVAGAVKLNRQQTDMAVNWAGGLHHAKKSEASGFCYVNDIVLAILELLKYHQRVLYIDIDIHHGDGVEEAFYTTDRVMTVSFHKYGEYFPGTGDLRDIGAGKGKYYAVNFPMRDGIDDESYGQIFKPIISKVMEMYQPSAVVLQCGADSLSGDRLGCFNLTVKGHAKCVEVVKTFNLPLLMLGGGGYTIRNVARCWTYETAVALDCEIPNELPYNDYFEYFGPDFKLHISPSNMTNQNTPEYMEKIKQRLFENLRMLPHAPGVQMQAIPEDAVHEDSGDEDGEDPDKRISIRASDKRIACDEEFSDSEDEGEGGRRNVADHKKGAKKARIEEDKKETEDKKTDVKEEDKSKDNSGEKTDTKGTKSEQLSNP

[4] = molecular target: T3, HDAC3 (Homo sapiens, UniProt O15379); assay: as above; format: biochemical
T3 construct: purchased from BPS Bioscience; with Nuclear receptor corepressor 2
T3 sequence (O15379 whole entry): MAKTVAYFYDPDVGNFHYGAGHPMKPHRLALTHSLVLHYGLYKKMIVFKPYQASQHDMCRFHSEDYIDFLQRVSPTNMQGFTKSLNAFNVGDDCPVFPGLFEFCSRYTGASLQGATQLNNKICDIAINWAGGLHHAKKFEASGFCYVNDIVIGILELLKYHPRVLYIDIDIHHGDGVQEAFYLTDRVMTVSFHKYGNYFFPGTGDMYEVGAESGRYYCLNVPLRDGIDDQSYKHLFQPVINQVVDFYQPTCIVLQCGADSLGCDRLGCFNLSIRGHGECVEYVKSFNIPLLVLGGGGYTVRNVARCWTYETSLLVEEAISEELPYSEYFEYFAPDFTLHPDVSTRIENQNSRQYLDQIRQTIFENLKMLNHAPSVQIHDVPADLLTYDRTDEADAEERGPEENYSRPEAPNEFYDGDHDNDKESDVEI

[5] = molecular target: T4, HDAC6 (Homo sapiens, UniProt Q9UBN7); assay: biochemical; set-up: in vitro inhibition of purified HDAC isozymes, dose response
T4 sequence (Q9UBN7 1-1215): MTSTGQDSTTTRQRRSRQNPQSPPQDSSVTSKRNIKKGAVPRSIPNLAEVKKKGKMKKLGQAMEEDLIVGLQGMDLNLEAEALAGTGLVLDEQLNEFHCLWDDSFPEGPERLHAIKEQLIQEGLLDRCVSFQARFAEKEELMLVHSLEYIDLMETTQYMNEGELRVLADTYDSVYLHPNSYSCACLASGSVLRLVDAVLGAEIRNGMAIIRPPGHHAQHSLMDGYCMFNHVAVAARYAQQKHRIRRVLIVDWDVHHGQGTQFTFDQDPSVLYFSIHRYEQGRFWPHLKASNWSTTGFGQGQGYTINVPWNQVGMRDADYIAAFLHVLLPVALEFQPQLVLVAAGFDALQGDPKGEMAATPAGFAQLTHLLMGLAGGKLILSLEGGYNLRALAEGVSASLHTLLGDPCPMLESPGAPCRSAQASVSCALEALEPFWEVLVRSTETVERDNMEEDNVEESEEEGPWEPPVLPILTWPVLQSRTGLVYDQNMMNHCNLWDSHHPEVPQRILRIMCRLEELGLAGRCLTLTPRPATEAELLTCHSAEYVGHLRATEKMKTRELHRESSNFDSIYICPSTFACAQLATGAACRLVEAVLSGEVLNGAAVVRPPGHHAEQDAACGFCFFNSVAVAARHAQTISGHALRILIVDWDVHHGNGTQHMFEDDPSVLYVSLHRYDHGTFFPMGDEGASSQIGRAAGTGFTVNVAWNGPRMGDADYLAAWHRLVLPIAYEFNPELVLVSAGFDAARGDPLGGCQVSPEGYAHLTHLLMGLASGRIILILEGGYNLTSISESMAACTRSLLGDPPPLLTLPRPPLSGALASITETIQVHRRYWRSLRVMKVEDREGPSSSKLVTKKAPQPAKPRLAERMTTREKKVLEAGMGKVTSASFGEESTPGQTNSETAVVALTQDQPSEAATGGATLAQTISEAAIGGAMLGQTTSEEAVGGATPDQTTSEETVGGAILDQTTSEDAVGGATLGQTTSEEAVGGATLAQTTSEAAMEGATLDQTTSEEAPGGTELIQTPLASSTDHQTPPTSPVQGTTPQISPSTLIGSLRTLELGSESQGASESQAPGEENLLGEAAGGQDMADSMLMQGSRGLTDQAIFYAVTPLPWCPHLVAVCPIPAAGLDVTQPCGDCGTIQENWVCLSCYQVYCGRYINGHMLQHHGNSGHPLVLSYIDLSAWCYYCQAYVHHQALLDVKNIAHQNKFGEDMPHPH
Experimental: (§1) To confirm the ability of NKL54, MC2984 and MC2985 to act as epigenetic drugs, we examined the levels of histone H3 lysine 9 acetylation (H3K9ac) by immunoblot. SAHA triggered an increase in H3K9 acetylation within 15 min of treatment (Figure 1G). […] The increase in H3K9ac in response to MC2985 treatment was very small, almost undetectable. […] Overall, the modulation of H3K9ac and of H3K27ac levels in response to the different compounds confirms the inhibitory potency observed with the KDAC assay in vivo. Finally, we compared the in vitro inhibitory activity of SAHA and of PAOA derivatives against different purified HDACs (NKL54 was chosen as an example). The inhibitory activity of NKL54 was specific to HDAC1/2/3 (Figure 1H). […] The Tanimoto coefficient is reported for all the compounds versus the reference BML-210. *Energy calculated on the re-docked ligand extracted from the 3MU6 complex available from PDB. **Tanimoto similarity index calculated with radius 2 circular Morgan fingerprints ([73]) in a python script ([74]) using the RDKit library ([75]). […] Cell death was scored after 48 h from treatments. […] Cell death was scored after 48 h from treatments. Data are from 3 independent experiments, + S.D. (F) Lys-deacetylase activity as measured from SK-UT-1 cells treated with increasing concentrations of the indicated compounds [1, 5, 10 μM]. […]

[6] = molecular target: T5, HDAC8 (Homo sapiens, UniProt Q9BY41); assay: biochemical; set-up: in vitro inhibition of purified HDAC isozymes, dose response
T5 sequence (Q9BY41 1-377): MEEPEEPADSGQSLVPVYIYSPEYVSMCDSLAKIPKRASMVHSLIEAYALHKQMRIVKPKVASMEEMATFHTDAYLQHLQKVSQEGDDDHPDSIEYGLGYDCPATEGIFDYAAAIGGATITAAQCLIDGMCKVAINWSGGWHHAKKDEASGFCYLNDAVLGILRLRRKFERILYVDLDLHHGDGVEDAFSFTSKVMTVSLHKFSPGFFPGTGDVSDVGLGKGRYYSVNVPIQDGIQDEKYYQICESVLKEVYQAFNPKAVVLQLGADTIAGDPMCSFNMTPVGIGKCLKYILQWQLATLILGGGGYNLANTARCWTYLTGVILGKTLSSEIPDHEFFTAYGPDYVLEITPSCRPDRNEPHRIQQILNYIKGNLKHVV
Experimental: as §1

HDAC4, sequence (P56524 648-1057 limits assumed): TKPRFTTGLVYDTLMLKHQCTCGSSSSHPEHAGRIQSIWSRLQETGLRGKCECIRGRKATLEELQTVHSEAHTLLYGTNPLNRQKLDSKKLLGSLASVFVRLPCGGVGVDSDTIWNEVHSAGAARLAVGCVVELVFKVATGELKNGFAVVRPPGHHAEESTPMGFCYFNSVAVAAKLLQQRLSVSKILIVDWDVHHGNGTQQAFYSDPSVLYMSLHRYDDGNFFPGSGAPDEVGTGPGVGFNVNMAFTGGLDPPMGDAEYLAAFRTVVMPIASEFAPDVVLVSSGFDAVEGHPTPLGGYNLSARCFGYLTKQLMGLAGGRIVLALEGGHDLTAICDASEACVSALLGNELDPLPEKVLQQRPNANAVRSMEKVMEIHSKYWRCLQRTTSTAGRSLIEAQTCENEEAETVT

IC50 [1]: 35000 nM | IC50 [2]: 84 ± 4 nM | IC50 [3]: 176 ± 5 nM | IC50 [4]: 47 ± 2 nM | IC50 [5]: > 50000 nM | IC50 [6]: > 50000 nM
SMILES: Nc1ccccc1NC(=O)CCCCCC(=O)Nc1cccc(C(F)(F)F)c1 [NKL54, N-(2-aminophenyl)-N'-[3-(trifluoromethyl)phenyl]heptanediamide]
